From patent US9834514B2, “Antibiotic sensitivity-restoring and photosensitive agents” (New Mexico Tech Research Foundation, priority 2015, dated 2017)
≈ marks a conversion by molar mass, not a printed value.

Columns and labels:
[1] = tested on: S. aureus (ATCC 29213); test: MIC against drug sensitive S. aureus; type: cell-based; details: Staphylococcus aureus, ATCC29213; ATCC 29213; read-out: S. aureus MIC
[2] = tested on: VRE; test: Resensitization to antibiotics (log reduction, TABLE 29); type: cell-based, Enterococcus faecalis; details: compound 1 μM; Light (2 min)
[3] = tested on: Klebsiella pneumoniae (CRE, ATCC BAA-1705); test: Cell killing of CRE with compounds in presence or absence of PMB (CFU/mL); type: cell-based
Method: Klebsiella pneumoniae (CRE, ATCC BAA-1705) was grown in TSB overnight at 37° C. and diluted to about 5×10^5 CFU/mL using a McFarland Latex Turbidity standard (0.5). One mL of the cell suspension was transferred to a glass culture test tube. PMB was added to the cell suspension resulting in a final concentration of 200 μg/mL of PMB. The cell suspension was incubated at 37° C. on a rotary shaking incubator at 150 rpm for 4 hours. Compounds 1, 7, 8, 9, 10, and 11 were added to the cell suspension, resulting in a concentration of 20 μM for each of the compounds. The cell suspensions containing the compounds were incubated at 37° C. on a rotary shaking incubator at 150 rpm for 4 hours. Each sample was diluted tenfold to a 10^−5 dilution. Ten 10 microliters of each dilution from each sample was dripped onto a TSA plate and allowed to streak down the plate. The agar plates were incubated at 37° C. for 18-24 hours. Colony counts were performed and CFU/mL values were calculated.
The MICs of PMB and compounds 7-11 were determined against Klebsiella pneumoniae (CRE, ATCC BAA-1705). […] After the incubation with PMB, each of the compounds was added at a concentration of 20 μM, and the samples were incubated for an additional 18 hours. A sample was taken and diluted ten-fold in media. Ten microliters of each dilution was then drip-streaked onto an agar plate and incubated overnight at 37° C. Colony counts were then performed and the concentrations of cells (CFU/mL) were calculated.

[4] = tested on: VRE; test: MIC against VRE; type: cell-based, Enterococcus faecalis; details: Enterococcus, TABLE 23, read-out: VRE MIC
Method: In a 12×75 mm borosilicate glass culture tube, 1 mL of cell suspension was added. Then, compound 7 was added to the cells, and the samples were mixed using a vortex mixer. […] The samples were incubated overnight at 37° C. on a rotary shaking incubator at 100 rpm.

[5] = tested on: HeLa cells; test: Toxicity (IC50) on HeLa cells; type: cell-based, human; details: Homo sapiens; cancerous cervical epithelium HeLa cells
Method: The toxicities of the compounds of the invention were determined for human cancerous cervical epithelium HeLa and normal lung fibroblast WI38 cells. The toxicities of EPIs INF-55 and INF-55Cl were quantified as controls. […] TABLE 2 compares the toxicity of compounds 7-11 on HeLa cells and normal WI38 cells.

[6] = tested on: MRSA; test: Resensitization to antibiotics (log reduction, TABLE 29); type: cell-based, S. aureus
[7] = tested on: A. baumannii; test: as above; type: cell-based; details: compound 5 μM
[8] = tested on: drug-resistant bacteria; test: Summary of synergistic activities with antibiotic families (TABLE 45); type: cell-based; details: MRSA ATCC BAA-44
Excerpt: TABLE 45 summarizes the synergistic activities of the seven classes of clinically used antibiotics and compounds of the invention against a variety of different drug-resistant bacteria.

[9] = tested on: CRE; test: Resensitization to antibiotics (log reduction, TABLE 29); type: cell-based
Method: In a 96-well microtiter plate, two-fold dilutions were made of each drug (starting with 100 μM) in 100 μL of a cell suspension in TSB. The resulting samples were incubated overnight at 37° C. on a rotary shaking incubator at 100 rpm. The samples were then visually inspected for turbidity. A 20% well volume of MTT reagent (5 mg/mL) was subsequently added, and the samples were incubated for about 20 minutes.

[10] = tested on: MRSA (ATCC BAA-44); test: Synergy with oxacillin and norfloxacin and other antibiotics (colony counts); type: cell-based, S. aureus
Method: The synergy of compounds 1 and 7-11 with oxacillin and norfloxacin was tested against MRSA (ATCC BAA-44). An overnight culture of MRSA was first diluted to about 5×10^5 CFU/mL in TSB. Then, 1 mL of the diluted broth suspension was added to a borosilicate glass culture tube. An appropriate volume of a compound or an antibiotic drug stock was added to the broth suspension and mixed using a vortex mixer. Then an appropriate volume of an antibiotic was added to test synergy with compounds 7-11. The samples were subsequently mixed using a vortex mixer, and the samples were incubated for 18 hours at 37° C. on a rotary shaking incubator. After 18 hours, the test cultures were diluted ten-fold, 10 μL of each dilution was drip-streaked onto a TSA plate, and the samples were incubated for 18 hours at 37° C. Colony counts were then performed and the CFU/mL values were calculated.
TABLE 21 details the MIC values identified in the MRSA assay of compounds 1, 7, 8, 9, 10, 11, various antibiotics, and light.

[11] = (1/40) MIC compound + (1/30) MIC Tetracycline
[12] = (1/40) MIC compound + (1/31) MIC Dicloxicillin
[13] = (1/40) MIC compound + (1/50) MIC Dicloxicillin
[14] = (1/40) MIC compound + (1/50) MIC Norfloxacin
[15] = (1/40) MIC compound + (1/50) MIC Tobramycin
[16] = (1/40) MIC compound + (¼) MIC Oxacillin
[17] = (1/40) MIC compound + (⅙) MIC Vancomycin
[18] = compared to compound alone, FIGS. 34, 39, 41
[19] = increase in ability to kill MRSA versus drug or compound alone

In the case of `Clc1ccc(/C=C/c2[nH]c3ccccc3c2/C=C/c2ccc(Cl)cc2)cc1` [Compound 1], the MIC [1] is reported as 100 µM (≈ 39 µg/mL), the “Log Reduction” value [2] is reported as 8-9 and the “PMB + Comp” value ([3]; PMB @ 0.2 μg/mL + Comp @ 20 µM) is reported as 8.2 × 10^3 CFU/mL. For the same compound, the “Comp @ 20 µM” value ([3]; compound alone) was 6.4 × 10^8 CFU/mL, the MIC [4] was > 200 µM and the IC50 [5] was 68.9 ± 4.8 µM. For the same compound, the “Log Reduction” value ([6]; compound 1 μM, MRSA ATCC BAA-44, Light (2 min)) was 8, the “Log Reduction” value ([6]; compound 10 μM, Dicloxacillin (1 μg/mL)) was 8 and the “Log Reduction” value ([6]; compound 10 μM, Doxycycline (0.1 μg/mL)) was 4. For the same compound, the “Log Reduction” value ([6]; compound 10 μM, Vancomycin (0.5 μg/mL)) was 9, the “Log Reduction” value ([7]; PMB (0.5 μg/mL)) was 8 and the “Log Reduction” value ([7]; PME (0.2 μg/mL)) was 8. For the same compound, the “Synergy with Erythromycin (Macrolides)” value [8] was “Synergy (1)”, the “Synergy with Tetracycline (Tetracyclines)” value ([8]; †includes doxycycline) was “Synergy† (1)” and the “Log Reduction” value ([9]; compound 5 μM, PMB (0.2 μg/mL) + Light (2 min)) was 3. The “Log Reduction” value ([9]; compound 10 μM, PME (0.1 μg/mL)) was 9, the “Log Reduction” value ([9]; compound 10 μM, PME (0.2 μg/mL) + Light (2 min)) was 9 and the “% Kill” value [10, 11] was 99.99%. The “Surviving MRSA” value [10, 11] was 1.00 × 10^−5, the “% Kill” value [10, 12] was 99.99% and the “Surviving MRSA” value [10, 12] was 1.00 × 10^−4. The “% Kill” value [10, 13] was 99.99%, the “Surviving MRSA” value [10, 13] was 1.00 × 10^−8 and the “% Kill” value [10, 14] was 99.99%. For the same compound, the “Surviving MRSA” value [10, 14] was 1.00 × 10^−9, the “% Kill” value [10, 15] was 99.99% and the “Surviving MRSA” value [10, 15] was 1.00 × 10^−9. The “% Kill” value [10, 16] was 99.99%, the “Surviving MRSA” value [10, 16] was 1.00 × 10^−7 and the “% Kill” value [10, 17] was 99.99%. The “Surviving MRSA” value [10, 17] was 1.00 × 10^−9, the “% Kill” value ([10]; (1/40) MIC compound + Light) was 99.99% and the “Surviving MRSA” value ([10]; (1/40) MIC compound + Light) was 1.00 × 10^−8. The “Synergy with Norfloxacin” value ([10]; TABLE 6) was 5-log reduction, the “Synergy with Oxacillin” value ([10]; TABLE 6) was 5-log reduction and the “log reduction in the number of surviving cells (CFU/mL), co-treatment with norfloxacin” value [10, 18] was ~5 log. For the same compound, the “log reduction in the number of surviving cells (CFU/mL), co-treatment with oxacillin” value [10, 18] was ~5 log, the “Orders of Magnitude with Norfloxacin” value [10, 19] was 9 and the “Orders of Magnitude with Oxacillin” value [10, 19] was >7.
